# According to US20140377324A1, “Pharmaceutical Composition Comprising miRNA-100 And Its Use In The Modulation of Blood Vessel Growth and Endothelial Inflammation” (Universitatsklinikum Freiburg, priority 2009, published 2014):
# Entries after “also recorded” stand apart in the source; their conditions may differ. {Chol} = cholesterol
# How the values were obtained:
# [1] = system: miR-100; test: miR-100 expression in endothelial cells after cytokine, inhibitor or statin exposure (stem loop Taqman PCR); assay type: cell-based, human; conditions: for miR-100 expression: endothelial cells exposed to cytokine, TNF-α 10 ng/ml for different time points (FIG. 16A)
# Excerpt: (§1) MicoRNA expression was validated by quantitative stem-loop PCR technology (TaqMan MicroRNA Assays, Applied Biosystems, Foster City, Calif.). The use of target-specific reverse transcription primers and TaqMan hybridization probes allows the specific detection of mature microRNAs. MicroRNA expression was normalized to the expression of the small RNAs rnu19 and rnu48.
# To search for possible inducers of miR-100 downregulation in endothelial cells, several pro-angiogenic or pro-arteriogenic cytokines were screened for effects on miR-100 expression.
# FIG. 16 [A]: Human endothelial cells were stimulated 10 ng/ml TNF-α for different time points. RNA was isolated and quantified using Taqman based Stem loop PCR.
# FIG. 16 [B]: The NF-kappaB inhibitor PS1145 (10 μM) was added to TNF-α stimulated (10 ng/ml) human endothelial cells and the miR-100 expression level, compared to controls without PS1145, were measured using Stem loop Taqman PCR.
# Human endothelial cells were stimulated with 1 μM Simvastatin for 48 h.
# [2] = tissue distribution of fluorescence-labeled antagomir; assay type: in vivo; conditions: mice
# [3] = system: miR-100; test: miR-100 expression in mouse tissues after antagomir treatment; assay type: in vivo; conditions: mice, three doses of antagomir; FIG. 8
# Experimental: (§2) The murine hindlimb ischemia model conforms to the Guide for the Care and Use of Laboratory Animals published by the U.S. National Institutes of Health and was performed after securing appropriate institutional approval. Unilateral femoral artery occlusion was performed in C57/BI6J mice (Charles River Lab., Sulzfeld, Germany) by double ligation of the superficial femoral artery proximal to the deep femoral artery and the distal femoral artery just above the knee joint. A sham operation without arterial occlusion was performed on the contralateral leg. For molecular biology, histology and in situ hybridization, tissue was carefully dissected and snap-frozen in liquid nitrogen until further analysis. For dissection of isolated collateral arteries, the hindlimb vasculature was […] with liquid latex, to allow the identification and isolation of individual arterial vessels.
# (§3) To assess whether inhibition of miR-100 can be be used to stimulate revascularization in vivo, mice were treated with a specific antagomir against miR-100 after induction of unilateral hindlimb ischemia.
# [4] = system: murine hindlimb ischemia model; test: murine hindlimb ischemia model, perfusion restoration and capillary density; assay type: in vivo, C57/BI6J mice
# Experimental: as §2, §3
# In addition, two separate groups of mice were treated with daily injections of the mTOR-inhibitor rapamycin or solvent to investigate the timecourse of hindlimb perfusion restoration under conditions of endogenous miR-100 downregulation, but impaired signalling of its target gene mTOR.
# [5] = system: endothelial cells; test: flow cytometric quantification of Annexin V-staining (apoptosis); assay type: cell-based, human; conditions: compared to irrelevant control sequence, FIG. 3
# Excerpt: (§4) To assess whether the observed differences were secondary to effects on cellular viability, endothelial cell apoptosis and proliferation following miR-100 modulation was checked. […] DNA-synthesis rate was further analyzed by measuring BrdU-Incorporation, which correlates well with cellular proliferation.
# [6] = system: miR-100; test: miR-100 level by quantitative stem-loop RT-PCR after pre-miR/anti-miR transfection; assay type: cell-based, human; conditions: 24 h following transfection; vs irrelevant-sequence controls; FIG. 2
# Excerpt: To verify the expression of miR-100 in pure cell populations of the vascular wall, stem-loop RT-PCR was used for total RNA-isolates from cultured human endothelial cells (HUVECs) and human aortic vascular smooth muscle cells.
# as §1
# miR-100 was strongly expressed in both cell types. To investigate a potential role of miR-100 for angiogenesis, miR-100 was overexpressed and silenced in these cell types by transfecting specific miR-100 precursors (pre-miRs) or antisense-molecules (anti-miRs), respectively. […] Pre- and anti-miRs with an irrelevant nucleotide sequence served as negative controls. There was no significant difference in cellular viability following transfection with the different compounds.
# For transfection with pre-miR microRNA precursor molecules or anti-miRmiRNA inhibitors (all Ambion), cells were cultured to 70% confluence and transfected with 8nM pre-miR-100 or anti-miR-100 oligonucleotides using Lipofectamin RNAiMax (invitrogen) according to the manufacturers instructions. […]
# [7] = system: mTOR; test: mTOR expression in endothelial cells after miR-100 modulation; assay type: cell-based, human; conditions: FIG. 5
# Experimental: The binding site of miR-100 in the 3′-UTR of mTOR is shown in (FIG. 6.) In FIG. 6 the sequence designated hsa-miR-100 corresponds to SEQ ID NO:1 and the sequence having the designation mTOR 3′UTR corresponds to SEQ ID NO:7.
# For transfection with pre-miR microRNA precursor molecules or anti-miRmiRNA inhibitors (all Ambion), cells were cultured to 70% confluence and transfected with 8nM pre-miR-100 or anti-miR-100 oligonucleotides using Lipofectamin RNAiMax (invitrogen) according to the manufacturers instructions. For transfection of HEK293 cells with mTOR plasmids, 2 μg DNA per 3×10E5 cells was transfected with Fugene 6 transfection reagent (Roche). For double transfection of plasmids with miRNA-precursors and inhibitors, pre- and anti-miRs were added to the plasmid/Fugene transfection mix in the same final concentrations as stated above. mTOR (Acc. NM004958) full length (SKU SC124066) and ORF-constructs (SKU RC220457) were obtained from the Origene collection (Origene, Rockville, Md.).
# [8] = system: endothelial cells; test: planar matrigel assay, endothelial network formation; assay type: cell-based, human
# [9] = system: endothelial cells; test: BrdU-Incorporation (proliferation), endothelial cells; assay type: cell-based, human; conditions: FIG. 3
# Excerpt: as §4
# [10] = system: endothelial cells; test: three-dimensional spheroid culture assay, endothelial sprouting; assay type: cell-based, human
# [11] = system: HUVECs / human PBMCs; test: Leukocyte-HUVEC interaction under flow conditions (flow chamber); assay type: cell-based; conditions: TNF-alpha 30 ng/ml for 24 h, flow 1 dyn/cm^2; FIG. 15
# Experimental: HUVECs were grown to confluence, transfected with either anti-miR-100 or pre-Mir-100 oligonucelotides or scrambled controls and stimulated with TNF-alpha 30 ng/ml for 24 h. Human PBMCs (HPBMCs) were obtained from buffy coats of healthy donors by Ficoll-Hypaque density gradient centrifugation. The flow chamber was assembled and placed onto an inverted microscope stage, and freshly isolated HPBMCs (1×10^6/ml) were perfused across the endothelial monolayers. In all experiments, leukocyte interactions were determined over 105 min at 1 dyn/cm^2. Cells interacting on the surface of the endothelium were visualized and recorded using phase-contrast microscopy.
# To test if this change in expression results in a functional difference in leukocyte rolling and adhesion to the endothelial surface, the attachment of isolated peripheral blood mononuclear cells (PBMC) to transfected endothelial cells was investigated under physiologic flow conditions in a flow chamber apparatus.
# A physiological venous blood flow (1 dynes/cm^2) was induced by a flow chamber apparatus and the number of rolling or adherent peripheral blood mononuclear cells (PBMCs) was counted.
compound,measurement,setting,value
TNF-alpha,miR-100 expression,[1],significant downregulation of miR-100
same,miR-100 expression,[1]; listed as Tumor necrosis factor (TNF)-alpha,sustained downregulation of miR-100
same,dose dependency of miR-100 decrease,"[1]; endothelial cells, TNF-alpha concentrations tested",trend for a more pronounced decrease of miR-100 expression with higher doses
FGF2: pro-angiogenic or pro-arteriogenic cytokine,miR-100 expression,[1],no sustained and reproducible effect
"O=C(Nc1cc(Cl)cc2c1[nH]c1cnccc12)c1cccnc1 [PS1145, reference compound]",TNF-alpha effect on miR-100 expression,"[1]; PS1145 10 μM, TNF-α 10 ng/ml, human endothelial cells, FIG. 16B",abrogated the TNF-alpha effect; also recorded: attenuates the regulatory effect of TNF-alpha on miR-100 levels
"Antag-100: antagomir 5′-cacaaguucggaucuacggguu-3′ (SEQ ID No. 3), 2-O-methyl-RNA, phosphothioat modifications, cholesterol conjugation at 3′-end (antisense CACAAGUUCGGAUCUACGGGUU; all 2'-O-methyl, 3' {Chol}, backbone not given here; phosphorothioate modifications)",tissue localisation of antagomir,[2],found in the endothelial layer of blood vessels; also recorded: most prominent accumulation was found in liver and lung sections
same,miR-100 expression in a wide selection of tissues,[3],strong and sustained suppression of miR-100 expression
same,flow ratio,"[4]; day 7 following induction of ischemia, compared to two control-antagomirs",higher flow ratio
same,capillary density,[4]; distal hindlimb / ischemic tissue,increase in capillary density
same,perfusion restoration (blood flow restoration),"[4]; mice, after femoral artery occlusion, day 7, vs control-antagomirs or solvent, FIG. 9",significant stimulation of perfusion restoration
VEGF,miR-100 expression,[1],no sustained and reproducible effect
TGF-beta1: pro-angiogenic or pro-arteriogenic cytokine,miR-100 expression,[1],no sustained and reproducible effect
"anti-miR-100: antisense-molecule (anti-miR miRNA inhibitor, Ambion) silencing miR-100 in cultured cells; SEQ ID No:3 designated Anti miR (antisense CACAAGUUCGGAUCUACGGGUU; listed as RNA, chemistry not given here)",endothelial cell apoptosis,[5],no significant effect
same,detectable miR-100 (relative miR-100 expression),[6],significantly decreased miR-100 levels
same,mTOR-expression on both mRNA as well as protein level,[7],significant upregulation
same,endothelial network formation,[8],increased endothelial network formation
same,endothelial cell proliferation (DNA-synthesis rate),[9],consistent stimulatory effect
same,endothelial sprouting (total sprout length),[10],longer total sprout length
same,leukocyte (PBMC) adhesion to transfected endothelial cells,[11],stimulatory effect
same,leukocyte (PBMC) rolling on transfected endothelial cells,[11],stimulatory effect
